# Key:
# [1] = system: Phosphatidylinositol 4,5-bisphosphate 3-kinase catalytic subunit alpha isoform (Homo sapiens), P42336 [E545K]; assay: Inhibition of PIK3CA E545K mutant at 10 uM
# [2] = system: Phosphatidylinositol 4,5-bisphosphate 3-kinase catalytic subunit alpha isoform (Homo sapiens), P42336 [E542K]; assay: Inhibition of PIK3CA E542K mutant at 10 uM
# [3] = molecular target: Proto-oncogene tyrosine-protein kinase receptor Ret (Homo sapiens) (UniProt P07949); assay: Inhibition of RET at 10 uM; values are per cent of control
# [4] = molecular target: Ribosomal protein S6 kinase alpha-4 (Homo sapiens) (UniProt O75676); assay: Inhibition of RPS6KA4 N-terminal domain1 at 10 uM
# [5] = molecular target: Homeodomain-interacting protein kinase 2 (Homo sapiens) (UniProt Q9H2X6); assay: Inhibition of HIPK2 at 10 uM; conditions: values are per cent of control
# Chain of Homeodomain-interacting protein kinase 2 (Homo sapiens) (Q9H2X6 whole entry, looked up): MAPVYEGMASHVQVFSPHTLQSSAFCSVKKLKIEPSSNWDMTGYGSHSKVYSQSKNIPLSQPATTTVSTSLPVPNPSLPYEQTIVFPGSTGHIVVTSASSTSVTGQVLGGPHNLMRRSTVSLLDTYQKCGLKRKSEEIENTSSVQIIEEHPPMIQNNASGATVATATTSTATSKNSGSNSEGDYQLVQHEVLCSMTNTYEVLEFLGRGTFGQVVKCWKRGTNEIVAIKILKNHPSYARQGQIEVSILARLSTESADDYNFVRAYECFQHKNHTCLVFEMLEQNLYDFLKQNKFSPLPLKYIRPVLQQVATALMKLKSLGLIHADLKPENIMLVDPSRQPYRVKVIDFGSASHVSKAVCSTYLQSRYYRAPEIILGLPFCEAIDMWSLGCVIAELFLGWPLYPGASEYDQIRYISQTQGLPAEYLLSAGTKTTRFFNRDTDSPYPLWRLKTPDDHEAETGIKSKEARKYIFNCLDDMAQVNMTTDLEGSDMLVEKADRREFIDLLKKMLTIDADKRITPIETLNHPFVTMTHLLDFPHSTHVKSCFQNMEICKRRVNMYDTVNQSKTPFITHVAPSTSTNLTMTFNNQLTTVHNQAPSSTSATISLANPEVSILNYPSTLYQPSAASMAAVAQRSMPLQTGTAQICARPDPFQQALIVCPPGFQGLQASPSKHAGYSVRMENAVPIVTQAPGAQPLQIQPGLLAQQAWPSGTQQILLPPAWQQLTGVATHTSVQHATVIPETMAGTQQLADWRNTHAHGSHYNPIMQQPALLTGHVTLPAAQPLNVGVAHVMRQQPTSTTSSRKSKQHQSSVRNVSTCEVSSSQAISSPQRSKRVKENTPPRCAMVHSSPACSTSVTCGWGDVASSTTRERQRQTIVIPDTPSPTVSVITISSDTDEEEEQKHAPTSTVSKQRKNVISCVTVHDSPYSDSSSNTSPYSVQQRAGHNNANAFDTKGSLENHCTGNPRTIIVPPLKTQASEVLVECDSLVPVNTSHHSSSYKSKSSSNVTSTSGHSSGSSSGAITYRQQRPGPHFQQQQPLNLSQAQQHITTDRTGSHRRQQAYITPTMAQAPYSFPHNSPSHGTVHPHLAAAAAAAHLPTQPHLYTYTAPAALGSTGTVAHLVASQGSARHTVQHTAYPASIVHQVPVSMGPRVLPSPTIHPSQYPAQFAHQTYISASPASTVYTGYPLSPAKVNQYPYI
# [6] = molecular target: Aurora kinase B (Homo sapiens) (UniProt Q96GD4); assay: Inhibition of AURKB at 10 uM; conditions: values are per cent of control
# [7] = molecular target: Cyclin-dependent kinase 16 (Homo sapiens) (UniProt Q00536); assay: Inhibition of PCTK1 at 10 uM; conditions: values are per cent of control
# Chain of Cyclin-dependent kinase 16 (Homo sapiens) (Q00536 whole entry): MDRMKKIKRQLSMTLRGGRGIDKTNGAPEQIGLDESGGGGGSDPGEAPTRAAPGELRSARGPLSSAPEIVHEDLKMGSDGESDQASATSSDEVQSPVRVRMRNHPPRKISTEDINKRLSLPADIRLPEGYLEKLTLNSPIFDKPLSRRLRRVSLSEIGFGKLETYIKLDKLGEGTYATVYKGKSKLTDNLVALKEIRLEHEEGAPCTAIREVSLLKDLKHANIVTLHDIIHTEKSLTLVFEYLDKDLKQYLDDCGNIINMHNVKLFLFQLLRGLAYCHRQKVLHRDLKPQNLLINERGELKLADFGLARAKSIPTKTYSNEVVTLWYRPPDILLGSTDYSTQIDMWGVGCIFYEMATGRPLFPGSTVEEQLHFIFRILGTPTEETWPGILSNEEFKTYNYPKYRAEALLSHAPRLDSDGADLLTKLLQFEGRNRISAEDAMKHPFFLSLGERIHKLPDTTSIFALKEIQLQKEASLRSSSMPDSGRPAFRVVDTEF
# [8] = molecular target: Calcium/calmodulin-dependent protein kinase type II subunit delta (Homo sapiens) (UniProt Q13557); assay: Inhibition of CAMK2D at 10 uM; conditions: values are per cent of control
# [9] = molecular target: Serine/threonine-protein kinase PRP4 homolog (Homo sapiens) (UniProt Q13523); assay: Inhibition of PRP4 at 10 uM
# Chain of Serine/threonine-protein kinase PRP4 homolog (Homo sapiens) (Q13523 whole entry): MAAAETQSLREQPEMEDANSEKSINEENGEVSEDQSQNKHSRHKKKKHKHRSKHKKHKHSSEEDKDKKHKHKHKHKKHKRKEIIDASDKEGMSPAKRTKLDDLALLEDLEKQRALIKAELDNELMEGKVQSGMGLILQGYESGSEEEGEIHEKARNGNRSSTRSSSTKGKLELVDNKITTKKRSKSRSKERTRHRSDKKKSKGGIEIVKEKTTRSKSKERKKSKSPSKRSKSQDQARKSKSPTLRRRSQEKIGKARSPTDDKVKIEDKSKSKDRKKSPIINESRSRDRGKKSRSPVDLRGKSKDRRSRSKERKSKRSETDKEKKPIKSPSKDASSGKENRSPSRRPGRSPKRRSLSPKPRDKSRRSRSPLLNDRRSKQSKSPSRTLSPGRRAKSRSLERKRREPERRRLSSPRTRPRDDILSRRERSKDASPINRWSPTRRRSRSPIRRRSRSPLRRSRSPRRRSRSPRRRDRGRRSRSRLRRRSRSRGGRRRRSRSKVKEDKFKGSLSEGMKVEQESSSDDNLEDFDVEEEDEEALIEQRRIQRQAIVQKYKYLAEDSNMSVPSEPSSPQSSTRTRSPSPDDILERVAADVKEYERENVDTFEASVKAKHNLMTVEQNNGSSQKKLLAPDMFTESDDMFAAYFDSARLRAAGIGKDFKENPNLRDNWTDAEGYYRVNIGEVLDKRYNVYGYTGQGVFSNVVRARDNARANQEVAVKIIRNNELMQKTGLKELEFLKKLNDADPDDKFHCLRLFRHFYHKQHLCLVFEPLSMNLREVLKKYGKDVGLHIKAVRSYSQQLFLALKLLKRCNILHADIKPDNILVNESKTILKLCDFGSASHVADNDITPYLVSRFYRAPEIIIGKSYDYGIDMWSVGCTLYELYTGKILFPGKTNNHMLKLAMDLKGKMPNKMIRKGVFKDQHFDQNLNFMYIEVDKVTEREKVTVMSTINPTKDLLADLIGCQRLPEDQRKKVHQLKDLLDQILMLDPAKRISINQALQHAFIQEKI
# [10] = molecular target: Activin receptor type-2A (Homo sapiens) (UniProt P27037); assay: Inhibition of ACVR2A at 10 uM; conditions: values are per cent of control
# [11] = molecular target: Serine/threonine-protein kinase TBK1 (Homo sapiens) (UniProt Q9UHD2); assay: Inhibition of TBK1 at 10 uM
# [12] = molecular target: Serine/threonine-protein kinase 35 (Homo sapiens) (UniProt Q8TDR2); assay: Inhibition of STK35 at 10 uM
# [13] = molecular target: 5'-AMP-activated protein kinase catalytic subunit alpha-1 (Homo sapiens) (UniProt Q13131); assay: Inhibition of AMPK-alpha1 at 10 uM; conditions: values are per cent of control
# [14] = molecular target: Mitogen-activated protein kinase 14 (Homo sapiens) (UniProt Q16539); assay: Inhibition of p38alpha at 10 uM; values are per cent of control
# [15] = molecular target: Serine/threonine-protein kinase N1 (Homo sapiens) (UniProt Q16512); assay: Inhibition of PKN1 at 10 uM
# [16] = system: Serine/threonine-protein kinase B-raf (Homo sapiens), P15056 [V600E]; assay: Inhibition of BRAF V600E mutant at 10 uM; conditions: values are per cent of control
# Chain of Serine/threonine-protein kinase B-raf (Homo sapiens), P15056 [V600E] (P15056 whole entry V600E): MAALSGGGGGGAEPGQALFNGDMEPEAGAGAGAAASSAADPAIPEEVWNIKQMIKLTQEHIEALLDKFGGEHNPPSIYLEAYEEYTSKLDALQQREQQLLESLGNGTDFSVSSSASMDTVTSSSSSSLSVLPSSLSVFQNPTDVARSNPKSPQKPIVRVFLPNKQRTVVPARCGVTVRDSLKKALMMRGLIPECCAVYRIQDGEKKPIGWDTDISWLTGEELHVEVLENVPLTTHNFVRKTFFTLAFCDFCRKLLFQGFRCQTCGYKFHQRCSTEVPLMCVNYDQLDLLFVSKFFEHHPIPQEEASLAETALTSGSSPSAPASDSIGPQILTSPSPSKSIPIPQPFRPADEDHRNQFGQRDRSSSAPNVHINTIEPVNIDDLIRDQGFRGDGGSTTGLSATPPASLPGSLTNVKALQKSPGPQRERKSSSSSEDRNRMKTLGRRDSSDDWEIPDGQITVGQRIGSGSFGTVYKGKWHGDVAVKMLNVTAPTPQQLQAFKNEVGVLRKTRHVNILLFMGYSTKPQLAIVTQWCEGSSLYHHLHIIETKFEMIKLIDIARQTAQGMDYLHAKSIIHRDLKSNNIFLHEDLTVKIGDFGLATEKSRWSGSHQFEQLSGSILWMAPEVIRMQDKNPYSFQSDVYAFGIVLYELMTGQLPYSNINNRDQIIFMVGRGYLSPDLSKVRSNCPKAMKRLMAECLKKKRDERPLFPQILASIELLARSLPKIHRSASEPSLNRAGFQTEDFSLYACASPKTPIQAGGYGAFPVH
# [17] = molecular target: Myosin light chain kinase, smooth muscle (Homo sapiens) (UniProt Q15746); assay: Inhibition of MYLK at 10 uM
# [18] = molecular target: Mitogen-activated protein kinase kinase kinase 3 (Homo sapiens) (UniProt Q99759); assay: Inhibition of MAP3K3 at 10 uM; conditions: values are per cent of control
# [19] = molecular target: Protein kinase C eta type (Homo sapiens) (UniProt P24723); assay: Inhibition of PRKCH at 10 uM
# [20] = molecular target: Serine/threonine-protein kinase TAO2 (Homo sapiens) (UniProt Q9UL54); assay: Inhibition of TAOK2 at 10 uM
# [21] = molecular target: cGMP-dependent protein kinase 1 (Homo sapiens) (UniProt Q13976); assay: Inhibition of PRKG1 at 10 uM; conditions: values are per cent of control
# [22] = molecular target: MAP kinase-interacting serine/threonine-protein kinase 2 (Homo sapiens) (UniProt Q9HBH9); assay: Inhibition of MKNK2 at 10 uM
# [23] = molecular target: Mitogen-activated protein kinase 7 (Homo sapiens) (UniProt Q13164); assay: Inhibition of ERK5 at 10 uM; values are per cent of control
# [24] = molecular target: G protein-coupled receptor kinase 4 (Homo sapiens) (UniProt P32298); assay: Inhibition of GRK4 at 10 uM; conditions: values are per cent of control
# [25] = system: Phosphatidylinositol 4,5-bisphosphate 3-kinase catalytic subunit alpha isoform (Homo sapiens), P42336 [Q546K]; assay: Inhibition of PIK3CA Q546K mutant at 10 uM
# [26] = molecular target: Ribosomal protein S6 kinase alpha-2 (Homo sapiens) (UniProt Q15349); assay: Inhibition of RSK3 C-terminal domain2 at 10 uM
# [27] = molecular target: Phosphatidylinositol 4,5-bisphosphate 3-kinase catalytic subunit alpha isoform (Homo sapiens) (UniProt P42336); assay: Inhibition of PIK3CA at 10 uM; values are per cent of control
# [28] = system: Receptor-type tyrosine-protein kinase FLT3 (Homo sapiens), P36888 [D835H]; assay: Inhibition of FLT3 D835H mutant at 10 uM; conditions: values are per cent of control
# [29] = molecular target: Cyclin-dependent kinase 2 homolog (Plasmodium falciparum (isolate K1 / Thailand)) (UniProt Q07785); assay: Inhibition of Plasmodium falciparum PFPK5 at 10 uM
# [30] = molecular target: Inhibitor of nuclear factor kappa-B kinase subunit beta (Homo sapiens) (UniProt O14920); assay: Inhibition of IKK-beta at 10 uM; conditions: values are per cent of control
# [31] = system: Epidermal growth factor receptor (Homo sapiens), P00533 [UNDEFINED MUTATION]; assay: Inhibition of EGFR L747-E749del, A750P mutant at 10 uM; values are per cent of control
# [32] = molecular target: Rhodopsin kinase GRK7 (Homo sapiens) (UniProt Q8WTQ7); assay: Inhibition of GRK7 at 10 uM; conditions: values are per cent of control
# Chain of Rhodopsin kinase GRK7 (Homo sapiens) (Q8WTQ7 whole entry): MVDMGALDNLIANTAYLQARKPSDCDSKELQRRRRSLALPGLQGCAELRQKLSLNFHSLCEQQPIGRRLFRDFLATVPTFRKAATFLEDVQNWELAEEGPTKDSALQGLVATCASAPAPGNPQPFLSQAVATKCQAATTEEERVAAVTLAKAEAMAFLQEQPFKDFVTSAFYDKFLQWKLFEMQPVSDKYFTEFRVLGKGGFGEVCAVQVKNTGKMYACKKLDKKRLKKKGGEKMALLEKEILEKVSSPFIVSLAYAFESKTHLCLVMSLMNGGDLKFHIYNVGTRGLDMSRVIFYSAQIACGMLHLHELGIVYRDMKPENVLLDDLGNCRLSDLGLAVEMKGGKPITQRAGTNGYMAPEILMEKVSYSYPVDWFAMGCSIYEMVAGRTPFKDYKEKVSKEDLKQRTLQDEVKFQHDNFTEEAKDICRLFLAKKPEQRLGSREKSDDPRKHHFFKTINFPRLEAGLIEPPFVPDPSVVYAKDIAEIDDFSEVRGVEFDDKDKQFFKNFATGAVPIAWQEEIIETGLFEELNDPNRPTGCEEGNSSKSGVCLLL
# [33] = system: Leucine-rich repeat serine/threonine-protein kinase 2 (Homo sapiens), Q5S007 [G2019S]; assay: Inhibition of LRRK2 G2019S mutant at 10 uM; conditions: values are per cent of control
# [34] = molecular target: Protein-tyrosine kinase 2-beta (Homo sapiens) (UniProt Q14289); assay: Inhibition of PYK2 at 10 uM; conditions: values are per cent of control
# [35] = system: Tyrosine-protein kinase ABL1 (Homo sapiens), P00519 [M351T]; assay: Inhibition of phosphorylated ABL1 M351T mutant at 10 uM; conditions: values are per cent of control
# [36] = system: Epidermal growth factor receptor (Homo sapiens), P00533 [T790M]; assay: Inhibition of EGFR T790M mutant at 10 uM; values are per cent of control
# [37] = molecular target: Dual specificity protein kinase CLK4 (Homo sapiens) (UniProt Q9HAZ1); assay: Inhibition of CLK4 at 10 uM; conditions: values are per cent of control
# [38] = molecular target: Serine/threonine-protein kinase 3 (Homo sapiens) (UniProt Q13188); assay: Inhibition of MST2 at 10 uM
# [39] = molecular target: Interferon-induced, double-stranded RNA-activated protein kinase (Homo sapiens) (UniProt P19525); assay: Inhibition of PRKR at 10 uM
# Chain of Interferon-induced, double-stranded RNA-activated protein kinase (Homo sapiens) (P19525 whole entry): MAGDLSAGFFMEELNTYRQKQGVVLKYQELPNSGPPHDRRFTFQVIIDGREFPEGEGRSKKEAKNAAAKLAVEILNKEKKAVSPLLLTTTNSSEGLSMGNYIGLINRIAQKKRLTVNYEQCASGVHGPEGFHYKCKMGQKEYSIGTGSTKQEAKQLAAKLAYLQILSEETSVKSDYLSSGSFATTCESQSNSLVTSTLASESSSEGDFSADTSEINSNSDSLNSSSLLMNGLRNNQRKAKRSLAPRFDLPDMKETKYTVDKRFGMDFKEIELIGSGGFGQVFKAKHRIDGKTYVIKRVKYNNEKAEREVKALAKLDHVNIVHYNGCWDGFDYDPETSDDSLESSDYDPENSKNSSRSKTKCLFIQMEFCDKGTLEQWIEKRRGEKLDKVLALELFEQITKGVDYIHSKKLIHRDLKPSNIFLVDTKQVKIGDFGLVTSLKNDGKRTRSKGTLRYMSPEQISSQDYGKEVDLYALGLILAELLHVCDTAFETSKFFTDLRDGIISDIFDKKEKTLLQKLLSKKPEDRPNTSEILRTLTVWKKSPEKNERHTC
# [40] = molecular target: Cyclin-dependent kinase 14 (Homo sapiens) (UniProt O94921); assay: Inhibition of PFTK1 at 10 uM; conditions: values are per cent of control
# [41] = molecular target: Calcium/calmodulin-dependent protein kinase type IV (Homo sapiens) (UniProt Q16566); assay: Inhibition of CAMK4 at 10 uM; conditions: values are per cent of control
# Chain of Calcium/calmodulin-dependent protein kinase type IV (Homo sapiens) (Q16566 whole entry): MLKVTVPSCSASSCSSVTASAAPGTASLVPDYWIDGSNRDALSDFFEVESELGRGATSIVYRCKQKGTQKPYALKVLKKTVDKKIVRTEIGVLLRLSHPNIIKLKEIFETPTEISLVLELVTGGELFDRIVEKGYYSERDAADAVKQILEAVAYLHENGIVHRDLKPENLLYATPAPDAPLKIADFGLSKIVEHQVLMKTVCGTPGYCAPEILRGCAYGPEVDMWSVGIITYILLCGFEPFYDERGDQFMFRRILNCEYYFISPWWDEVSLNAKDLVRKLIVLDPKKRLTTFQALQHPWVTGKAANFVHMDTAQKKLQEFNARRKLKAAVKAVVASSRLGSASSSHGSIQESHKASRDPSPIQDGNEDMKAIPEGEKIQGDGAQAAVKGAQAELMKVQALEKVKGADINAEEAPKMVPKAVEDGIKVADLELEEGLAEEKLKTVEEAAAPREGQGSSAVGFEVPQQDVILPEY
# [42] = molecular target: Serine/threonine-protein kinase 36 (Homo sapiens) (UniProt Q9NRP7); assay: Inhibition of STK36 at 10 uM
smiles,measurement,setting,value
CCN1CCN(Cc2ccc(NC(=O)c3ccc(C)c(C#Cc4cccnc4)c3)cc2C(F)(F)F)CC1,inhibition,[1],85%
same,inhibition,[2],100%
same,"level, % of control",[3],0%
same,inhibition,[4],30%
same,"residual binding, % of control",[5],34%
same,"residual binding, % of control",[6],24%
same,"residual binding, % of control",[7],8.4%
same,"residual binding, % of control",[8],100%
same,inhibition,[9],54%
same,"residual binding, % of control",[10],100%
same,inhibition,[11],100%
same,inhibition,[12],1.6%
same,"residual binding, % of control",[13],1.2%
same,"level, % of control",[14],0%
same,inhibition,[15],85%
same,"residual binding, % of control",[16],0.05%
same,inhibition,[17],57%
same,"residual binding, % of control",[18],1.4%
same,inhibition,[19],67%
same,inhibition,[20],0.15%
same,"residual binding, % of control",[21],100%
same,inhibition,[22],0%
same,"level, % of control",[23],71%
same,"residual binding, % of control",[24],47%
same,inhibition,[25],100%
same,inhibition,[26],30%
same,"level, % of control",[27],100%
same,"residual binding, % of control",[28],0.15%
same,inhibition,[29],89%
same,"residual binding, % of control",[30],0%
same,"level, % of control",[31],1.2%
same,"residual binding, % of control",[32],100%
same,"residual binding, % of control",[33],7.5%
same,"residual binding, % of control",[34],0.4%
same,"residual binding, % of control",[35],2.6%
same,"level, % of control",[36],24%
same,"residual binding, % of control",[37],15%
same,inhibition,[38],53%
same,inhibition,[39],66%
same,"residual binding, % of control",[40],0.85%
same,"residual binding, % of control",[41],100%
same,inhibition,[42],0.4%
CCN1CCN(Cc2ccc(NC(=O)c3ccc(C)c(C#Cc4cnc5[nH]ccc5c4)c3)cc2C(F)(F)F)CC1,inhibition,[1],98%
same,inhibition,[2],96%
same,"level, % of control",[3],0%
same,inhibition,[4],3.6%
same,"residual binding, % of control",[5],46%
same,"residual binding, % of control",[6],4.6%
same,"residual binding, % of control",[7],46%
same,"residual binding, % of control",[8],100%
same,inhibition,[9],84%
same,"residual binding, % of control",[10],100%
same,inhibition,[11],84%
same,inhibition,[12],0.8%
same,"residual binding, % of control",[13],0.8%
same,"level, % of control",[14],0%
same,inhibition,[15],28%
same,"residual binding, % of control",[16],0.1%
same,inhibition,[17],56%
same,"residual binding, % of control",[18],1.4%
same,inhibition,[19],79%
same,inhibition,[20],0%
same,"residual binding, % of control",[21],100%
same,inhibition,[22],0.6%
same,"level, % of control",[23],36%
same,"residual binding, % of control",[24],14%
same,inhibition,[25],100%
same,inhibition,[26],87%
same,"level, % of control",[27],93%
same,"residual binding, % of control",[28],0.35%
same,inhibition,[29],93%
same,"residual binding, % of control",[30],0.1%
same,"level, % of control",[31],0.25%
same,"residual binding, % of control",[32],100%
same,"residual binding, % of control",[33],8.8%
same,"residual binding, % of control",[34],0.15%
same,"residual binding, % of control",[35],1.1%
same,"level, % of control",[36],13%
same,"residual binding, % of control",[37],32%
same,inhibition,[38],26%
same,inhibition,[39],54%
same,"residual binding, % of control",[40],1.6%
same,"residual binding, % of control",[41],100%
same,inhibition,[42],0.15%

# From ChEMBL document CHEMBL1177794, “Broad spectrum alkynyl inhibitors of T315I Bcr-Abl” (Bioorg Med Chem Lett, 2010)
